The target in the assay is T1, glucocorticoid receptor (Homo sapiens, UniProt P04150).
T1 construct: expressed in transfected cells
T1 sequence (P04150 524-758 limits assumed): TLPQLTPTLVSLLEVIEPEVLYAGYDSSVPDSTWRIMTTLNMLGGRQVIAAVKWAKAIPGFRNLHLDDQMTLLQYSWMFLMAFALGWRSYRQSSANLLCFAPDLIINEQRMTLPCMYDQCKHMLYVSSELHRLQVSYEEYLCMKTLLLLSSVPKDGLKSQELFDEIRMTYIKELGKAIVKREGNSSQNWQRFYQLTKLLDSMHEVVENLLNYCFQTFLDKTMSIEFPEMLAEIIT
The assay can be described thus: Agonistic mode of action on the glucocorticoid receptor (CHO-Gal4/GR luciferase reporter cell line). The following applies: range class observed in the agonistic assay or the antagonistic assay (CHO-Gal4/GR reporter cells); table does not say which mode applies per example. Format: cell-based. A digest of the protocol: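 CHO cells stably carrying GAL4 DBD–GR ligand-binding-domain fusion and GAL4-UAS firefly luciferase reporter, 5000 cells/well grown 24 h, then compounds added in Opti-MEM at 8 half-log concentrations from 10 μM to 0.003 μM (0.5% DMSO), quadruplicates. Agonist-induced luminescence read on FLIPR Tetra; EC50 calculated.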

Bounds are passed on as bounds.

In turn, `COc1c(-c2cc(F)cc3[nH]ccc23)c(F)cc2c1-n1c(C)nnc1C(C)(C)N2` [Example 468, 7-Fluoro-8-(6-fluoro-1H-indol-4-yl)-9-methoxy-1,4,4-trimethyl-5H-[1,2,4]triazolo[4,3-a]quinoxaline] registered an IC50 or EC50 (agonist or antagonist mode not specified) below 100 nM.

As for `Cc1c(-c2cccc3c2ccn3C)c(Cl)cc2c1-n1c(C)nnc1C(C)(C)N2` [Example 488, 7-Chloro-1,4,4,9-tetramethyl-8-(1-methyl-1H-indol-4-yl)-5H-[1,2,4]triazolo[4,3-a]quinoxaline], the IC50 or EC50 (agonist or antagonist mode not specified) lay in the range of 100 to 1000 nM.

With `CC#CCc1nnc2n1-c1c(cc(F)c(-c3cc(F)cc4c(C)c[nH]c34)c1F)NC2(C)C` [Example 69, 1-(but-2-yn-1-yl)-7,9-difluoro-8-(5-fluoro-3-methyl-1H-indol-7-yl)-4,4-dimethyl-4,5-dihydro-[1,2,4]triazolo[4,3-a]quinoxaline], the IC50 or EC50 (agonist or antagonist mode not specified) was below 100 nM.

For `Cc1nnc2n1-c1c(cc(F)c(-c3cccc4c3cnn4S(=O)(=O)C3CC3)c1F)NC2(C)C` [Example 234, 8-[1-(Cyclopropylsulfonyl)-1H-indazol-4-yl]-7,9-difluoro-1,4,4-trimethyl-5H-[1,2,4]triazolo[4,3-a]quinoxaline], the IC50 or EC50 (agonist or antagonist mode not specified) was 1000 to 15000 nM.

Regarding `Cc1c(-c2cc(F)cc3c2ccn3CCO)ccc2c1-n1c(C)nnc1C(C)(C)N2` [Example 451, 2-[6-Fluoro-4-(1,4,4,9-tetramethyl-5H-[1,2,4]triazolo[4,3-a]quinoxalin-8-yl)-1H-indol-1-yl]-ethanol], the IC50 or EC50 (agonist or antagonist mode not specified) was 100 to 1000 nM.

Molecule `Cc1nnc2n1-c1c(cc(F)c(-c3cc(F)cc4c3ccn4CC(F)(F)F)c1F)NC2(C)C` [Example 21, 7,9-difluoro-8-(6-fluoro-1-(2,2,2-trifluoroethyl)-1H-indol-4-yl)-1,4,4-trimethyl-4,5-dihydro-[1,2,4]triazolo[4,3-a]quinoxaline] showed an IC50 or EC50 (agonist or antagonist mode not specified) of 100 to 1000 nM.

As for `Cc1c[nH]c2c(-c3ccc4c(c3C(F)F)-n3c(C)nnc3C(C)(C)N4)cc(F)cc12` [Example 527, 9-(Difluoro-methyl)-8-(5-fluoro-3-methyl-1H-indol-7-yl)-1,4,4-trimethyl-5H-[1,2,4]triazolo [4,3-a]quinoxaline], the IC50 or EC50 (agonist or antagonist mode not specified) is below 100 nM.

The molecule `COc1c(-c2cccc3c(C)c[nH]c23)c(F)cc2c1-n1c(C)nnc1C(C)(C)N2` [Example 270, 7-Fluoro-9-methoxy-1,4,4-trimethyl-8-(3-methyl-1H-indol-7-yl)-5H-[1,2,4]triazolo[4,3-a]quinoxaline] returned an IC50 or EC50 (agonist or antagonist mode not specified) of 100 to 1000 nM.

For the molecule `Cc1cc2c(c(F)c1-c1cc(F)cc3c1ccn3S(C)(=O)=O)-n1c(C)nnc1C(C)(C)N2` [Example 332, 9-Fluoro-8-(6-fluoro-1-methylsulfonyl-1H-indol-4-yl)-1,4,4,7-tetramethyl-5H-[1,2,4] triazolo[4,3-a]quinoxaline], the IC50 or EC50 (agonist or antagonist mode not specified) fell in the range of 1000 to 15000 nM.

As for `COc1cc2c(c(F)c1-c1cccc3c(C)c[nH]c13)-n1c(C)nnc1C(C)(C)N2` [Example 266, 9-Fluoro-7-methoxy-1,4,4-trimethyl-8-(3-methyl-1H-indol-7-yl)-5H-[1,2,4]triazolo[4,3-a]quinoxaline], the IC50 or EC50 (agonist or antagonist mode not specified) lay within 100 to 1000 nM.

`CCS(=O)(=O)n1ccc2c(-c3c(F)cc4c(c3C(F)(F)F)-n3c(C)nnc3C(C)(C)N4)cccc21` [Example 455, 8-[1-(Ethylsulfonyl)-1H-indol-4-yl]-7-fluoro-1,4,4-trimethyl-9-(trifluoromethyl)-5H-[1,2,4]triazolo[4,3-a]quinoxaline] showed an IC50 or EC50 (agonist or antagonist mode not specified) below 100 nM.

Consider `Cc1nnc2n1-c1c(cc(F)c(-c3cccc4cc[nH]c34)c1C(F)(F)F)NC2(C)C` [Example 86, 7-fluoro-8-(1H-indol-7-yl)-1,4,4-trimethyl-9-(trifluoromethyl)-4,5-dihydro-[1,2,4]triazolo[4,3-a]quinoxaline], for which the IC50 or EC50 (agonist or antagonist mode not specified) is 100 to 1000 nM.

`COc1cc2c(c(F)c1-c1cccc3c1ccn3CC(F)F)-n1c(C)nnc1C(C)(C)N2` [Example 314, 8-[1-(2,2-Difluoro-ethyl)-1H-indol-4-yl]-9-fluoro-7-methoxy-1,4,4-trimethyl-5H-[1,2,4]triazolo[4,3-a]quinoxaline] yielded an IC50 or EC50 (agonist or antagonist mode not specified) of 1000 to 15000 nM.

Take `Cc1c(-c2cccc3c2ccn3S(C)(=O)=O)c(Cl)cc2c1-n1c(C)nnc1C(C)(C)N2` [Example 317, 7-Chloro-1,4,4,9-tetramethyl-8-(1-methylsulfonyl-1H-indol-4-yl)-5H-[1,2,4]triazolo[4,3-a]quinoxaline]: the IC50 or EC50 (agonist or antagonist mode not specified) fell in the range of 1000 to 15000 nM.

As to `Cc1nnc2n1-c1c(cc(F)c(-c3cc(F)cc4c3ccn4S(=O)(=O)C3CC3)c1F)NC2(C)C` [Example 19, 8-(1-(cyclopropylsulfonyl)-6-fluoro-1H-indol-4-yl)-7,9-difluoro-1,4,4-trimethyl-4,5-dihydro-[1,2,4]triazolo[4,3-a]quinoxaline], the IC50 or EC50 (agonist or antagonist mode not specified) fell in the range of 100 to 1000 nM.

The molecule `Cc1c[nH]c2c(-c3c(F)cc4c(c3C(F)(F)F)-n3c(C)nnc3C(C)(C)N4)cccc12` [Example 29, 7-fluoro-1,4,4-trimethyl-8-(3-methyl-1H-indol-7-yl)-9-(trifluoromethyl)-4,5-dihydro-[1,2,4]triazolo[4,3-a]quinoxaline] returned an IC50 or EC50 (agonist or antagonist mode not specified) below 100 nM.

`Cc1nnc2n1-c1c(cc(F)c(-c3cc(F)cc4c3cnn4S(C)(=O)=O)c1C(F)F)NC2(C)C` [Example 346, 9-(Difluoro-methyl)-7-fluoro-8-(6-fluoro-1-methylsulfonyl-1H-indazol-4-yl)-1,4,4-trimethyl-5H-[1,2,4]triazolo[4,3-a]quinoxaline] had an IC50 or EC50 (agonist or antagonist mode not specified) of 100 to 1000 nM.

`CC#CCc1nnc2n1-c1c(cc(F)c(-c3cccc4c(C)c[nH]c34)c1F)NC2(C)C` [Example 70, 1-(but-2-yn-1-yl)-7,9-difluoro-4,4-dimethyl-8-(3-methyl-1H-indol-7-yl)-4,5-dihydro-[1,2,4]triazolo[4,3-a]quinoxaline] showed an IC50 or EC50 (agonist or antagonist mode not specified) below 100 nM.

On to `Cc1nnc2n1-c1c(cc(F)c(-c3cccc4cc[nH]c34)c1F)NC2(C)C` [Example 9, 7,9-difluoro-8-(1H-indol-7-yl)-1,4,4-trimethyl-4,5-dihydro-[1,2,4]triazolo[4,3-a]quinoxaline], for which the IC50 or EC50 (agonist or antagonist mode not specified) lay within 100 to 1000 nM.

Molecule `Cc1nnc2n1-c1c(cc(F)c(-c3cccc4c3cnn4C)c1F)NC2(C)C` [Example 221, 7,9-Difluoro-1,4,4-trimethyl-8-(1-methyl-1H-indazol-4-yl)-5H-[1,2,4]triazolo[4,3-a]quinoxaline] displayed an IC50 or EC50 (agonist or antagonist mode not specified) of 100 to 1000 nM.

With `COc1cc2c(c(F)c1-c1cc(F)cc3c1ccn3S(C)(=O)=O)-n1c(C)nnc1C(C)(C)N2` [Example 255, 9-Fluoro-8-(6-fluoro-1-methylsulfonyl-1H-indol-4-yl)-7-methoxy-1,4,4-trimethyl-5H-[1,2,4]triazolo[4,3-a]quinoxaline], the IC50 or EC50 (agonist or antagonist mode not specified) was in the range of 1000 to 15000 nM.

`CC(=O)n1ccc2c(-c3c(F)cc4c(c3F)-n3c(C)nnc3C(C)(C)N4)cccc21` [Example 20, 1-(4-(7,9-difluoro-1,4,4-trimethyl-4,5-dihydro-[1,2,4]triazolo[4,3-a]quinoxalin-8-yl)-1H-indol-1-yl)ethanone] registered an IC50 or EC50 (agonist or antagonist mode not specified) of 100 to 1000 nM.

Consider `Cc1nnc2n1-c1c(cc(F)c(-c3cccc4c3cnn4S(C)(=O)=O)c1C(F)F)NC2(C)C` [Example 382, 9-(Difluoro-methyl)-7-fluoro-1,4,4-trimethyl-8-(1-methylsulfonyl-1H-indazol-4-yl)-5H-[1,2,4]triazolo[4,3-a]quinoxaline], for which the IC50 or EC50 (agonist or antagonist mode not specified) lay in the range of 1000 to 15000 nM.

`Cc1c(-c2cccc3c(C#CC(C)(C)N)c[nH]c23)c(F)cc2c1-n1c(C)nnc1C(C)(C)N2` [Example 40] came in with an IC50 or EC50 (agonist or antagonist mode not specified) below 100 nM.

Consider `Cc1nnc2n1-c1c(cc(F)c(-c3cccc4c3ccn4C(=O)CN(C)C)c1F)NC2(C)C` [Example 223, 1-[4-(7,9-Difluoro-1,4,4-trimethyl-5H-[1,2,4]triazolo[4,3-a]quinoxalin-8-yl)-1H-indol-1-yl]-2-dimethylamino-ethanone], for which the IC50 or EC50 (agonist or antagonist mode not specified) is below 100 nM.

Molecule `Cc1c(-c2cccc3c2ccn3S(C)(=O)=O)c(OC(F)F)cc2c1-n1c(C)nnc1C(C)(C)N2` [Example 318, 7-(Difluoro-methoxy)-1,4,4,9-tetramethyl-8-(1-methylsulfonyl-1H-indol-4-yl)-5H-[1,2,4]triazolo[4,3-a]quinoxaline] registered an IC50 or EC50 (agonist or antagonist mode not specified) of 100 to 1000 nM.

As for `CC#Cc1c[nH]c2c(-c3c(F)cc4c(c3C)-n3c(COC)nnc3C(C)(C)N4)cc(F)cc12` [Example 76, 7-fluoro-8-(5-fluoro-3-(prop-1-yn-1-yl)-1H-indol-7-yl)-1-(methoxymethyl)-4,4,9-trimethyl-4,5-dihydro-[1,2,4]triazolo[4,3-a]quinoxaline], the IC50 or EC50 (agonist or antagonist mode not specified) was below 100 nM.

On to `Cc1nnc2n1-c1c(cc(F)c(-c3cc(F)cc4[nH]ccc34)c1C(F)F)NC2(C)C` [Example 466, 9-(Difluoro-methyl)-7-fluoro-8-(6-fluoro-1H-indol-4-yl)-1,4,4-trimethyl-5H-[1,2,4]triazolo [4,3-a]quinoxaline], for which the IC50 or EC50 (agonist or antagonist mode not specified) was below 100 nM.

As for `COc1cc2c(c(C(F)(F)F)c1-c1cc(F)cc3c(C)c[nH]c13)-n1c(C)nnc1C(C)(C)N2` [Example 407, 8-(5-Fluoro-3-methyl-1H-indol-7-yl)-7-methoxy-1,4,4-trimethyl-9-(trifluoromethyl)-5H-[1,2,4]triazolo[4,3-a]quinoxaline], the IC50 or EC50 (agonist or antagonist mode not specified) was below 100 nM.

Values taken from patent US12110293B2, “Substituted triazolo quinoxaline derivatives” (GRÜNENTHAL GMBH, priority 2018, dated 2024).
